Assay results as given in patent US11304897B2, “Pharmaceutical formulation containing umeclidinium bromide and vilanterol trifenatate” (ANOVENT PHARMACEUTICAL (U.S.), LLC, priority 2020, dated 2022).
Values after ≈ are worked out from the molar mass of the structure shown.

Experiment: Solubility in different cosolvents
Assay type: physicochemical
Text: Solubility in Different Cosolvents: 5% tween-80: Dissolve 5 g tween-80 in 100 g purified water. 5% Sulfobutylether β-cyclodextrin: Dissolve 5 g Sulfobutylether β-cyclodextrin in 100 g purified water. 20% Sulfobutylether β-cyclodextrin: Dissolve 20 g Sulfobutylether β-cyclodextrin in 100 g purified water.

[1] = 0.2 mg/ml tween-80, aqueous with cosolvent or surfactant or cyclodextrin
[2] = 5% sulfobutylether β-cyclodextrin in purified water, aqueous with cosolvent or surfactant or cyclodextrin
[3] = 5% tween-80 in purified water, aqueous with cosolvent or surfactant or cyclodextrin, 5% tween -80
[4] = 20% sulfobutylether β-cyclodextrin in purified water, aqueous with cosolvent or surfactant or cyclodextrin

SMILES	solubility [1] [µg/mL]	solubility [2] [µg/mL]	solubility [3] [µg/mL]	solubility [4] [µg/mL]	solubility (in words) (purified water)	solubility (purified water, water) [µg/mL]
OC(c1ccccc1)(c1ccccc1)C12CC[N+](CCOCc3ccccc3)(CC1)CC2.[Br-] [UB, 1-[2-(benzyloxy)ethyl]-4-(hydroxydiphenylmethyl)-1-azoniabicyclo[2.2.2]octane bromide]	582	3560	3540	3450	almost insoluble	618
OCc1cc([C@@H](O)CNCCCCCCOCCOCc2c(Cl)cccc2Cl)ccc1O [VT, triphenylacetic acid-4-{(1R)-2-[(6-{2-[(2,6-dicholorobenzyl)oxy]ethoxy}hexyl)amino]-1-hydroxyethyl}-2-(hydroxymethyl)phenol (1:1)]	62.6 (≈ 129 µM)	370 (≈ 760 µM)	1370 (≈ 2820 µM)	1400 (≈ 2880 µM)	almost insoluble	53.7 (≈ 110 µM)
